Data on 50 molecules can be found in patent US20200377505A1, “BENZIMIDAZOLES AND AZA-BENZIMIDAZOLES, AND METHODS OF USE THEREOF” (Goldfinch Bio., Inc., priority 2017, published 2020).

Test [1] has as its target T1, human TRPC5 (Homo sapiens, UniProt Q9UL62).
T1 construct: expressed in transfected cells; host or cells: HEK 293
T1 sequence (Q9UL62 1-973): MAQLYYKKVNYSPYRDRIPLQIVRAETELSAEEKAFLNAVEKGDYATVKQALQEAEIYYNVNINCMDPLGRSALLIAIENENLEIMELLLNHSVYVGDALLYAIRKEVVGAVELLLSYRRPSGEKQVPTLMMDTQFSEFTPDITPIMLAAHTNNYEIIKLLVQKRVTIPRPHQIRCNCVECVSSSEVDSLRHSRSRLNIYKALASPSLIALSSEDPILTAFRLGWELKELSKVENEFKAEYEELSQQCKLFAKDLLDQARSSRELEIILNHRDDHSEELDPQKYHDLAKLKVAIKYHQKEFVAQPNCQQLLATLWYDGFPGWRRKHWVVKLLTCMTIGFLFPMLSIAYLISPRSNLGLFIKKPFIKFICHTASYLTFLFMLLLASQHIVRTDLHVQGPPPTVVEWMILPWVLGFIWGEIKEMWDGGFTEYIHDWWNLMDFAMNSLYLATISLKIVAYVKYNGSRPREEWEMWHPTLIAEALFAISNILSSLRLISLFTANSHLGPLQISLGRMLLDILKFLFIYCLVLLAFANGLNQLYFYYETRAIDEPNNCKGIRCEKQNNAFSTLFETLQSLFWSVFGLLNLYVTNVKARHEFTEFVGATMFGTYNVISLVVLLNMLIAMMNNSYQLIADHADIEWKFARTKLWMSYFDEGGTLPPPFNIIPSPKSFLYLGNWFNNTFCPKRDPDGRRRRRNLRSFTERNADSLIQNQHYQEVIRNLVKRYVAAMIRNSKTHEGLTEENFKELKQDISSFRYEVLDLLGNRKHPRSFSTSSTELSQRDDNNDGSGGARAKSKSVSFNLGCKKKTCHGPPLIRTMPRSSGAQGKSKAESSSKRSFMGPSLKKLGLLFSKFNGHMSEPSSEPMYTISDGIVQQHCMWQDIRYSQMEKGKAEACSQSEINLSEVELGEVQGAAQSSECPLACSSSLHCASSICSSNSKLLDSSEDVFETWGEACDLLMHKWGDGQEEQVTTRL
Nature of the test: TRPC5 fluorescence-based assay (Ca2+ flux assay in FLIPR format), cells overexpressing TRPC5. To be noted: 5 μM of test compound, following Carbachol stimulation. Type of test: cell-based.

Test [2] addresses T2, human TRPC6 (Homo sapiens, UniProt Q9Y210).
T2 construct: expressed in transfected cells; host or cells: HEK 293
T2 sequence (Q9Y210 1-931): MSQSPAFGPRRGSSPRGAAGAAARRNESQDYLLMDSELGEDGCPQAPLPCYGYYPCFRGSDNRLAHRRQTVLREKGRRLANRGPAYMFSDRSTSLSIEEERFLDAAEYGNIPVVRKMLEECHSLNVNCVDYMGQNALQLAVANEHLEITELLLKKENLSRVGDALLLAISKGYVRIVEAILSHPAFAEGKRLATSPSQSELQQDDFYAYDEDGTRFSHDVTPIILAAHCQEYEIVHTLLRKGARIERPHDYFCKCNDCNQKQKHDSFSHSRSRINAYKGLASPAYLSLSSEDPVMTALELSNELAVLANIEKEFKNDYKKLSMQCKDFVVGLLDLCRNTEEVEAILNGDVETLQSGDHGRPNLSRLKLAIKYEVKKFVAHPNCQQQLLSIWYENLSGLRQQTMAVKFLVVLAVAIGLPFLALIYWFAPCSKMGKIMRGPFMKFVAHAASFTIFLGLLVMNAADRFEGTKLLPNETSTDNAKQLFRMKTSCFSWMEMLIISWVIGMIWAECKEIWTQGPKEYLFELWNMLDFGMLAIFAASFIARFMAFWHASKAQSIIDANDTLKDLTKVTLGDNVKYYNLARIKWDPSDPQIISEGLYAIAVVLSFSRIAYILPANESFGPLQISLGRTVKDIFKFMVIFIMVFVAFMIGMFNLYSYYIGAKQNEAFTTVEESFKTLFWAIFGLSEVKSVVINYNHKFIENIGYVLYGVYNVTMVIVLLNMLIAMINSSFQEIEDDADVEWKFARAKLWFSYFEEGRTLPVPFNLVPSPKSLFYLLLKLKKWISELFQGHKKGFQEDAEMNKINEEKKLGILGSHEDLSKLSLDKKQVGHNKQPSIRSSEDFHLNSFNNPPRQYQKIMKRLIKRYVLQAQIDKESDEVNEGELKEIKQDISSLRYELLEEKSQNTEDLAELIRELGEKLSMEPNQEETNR
Nature of the test: TRPC6 fluorescence-based assay (Ca2+ flux assay in FLIPR format), cells overexpressing TRPC6. Format: cell-based. As to conditions: 5 μM of test compound, following Carbachol stimulation.

As to `COc1ccc(Cc2nc3ccccc3n2C(C)c2ccccc2)cc1` (stereo not shown), the results for the inhibition at 5 µM in test [1] and in test [2] were 51% and 45%, respectively.

For the molecule `COCc1ccccc1Cn1cnc2ccccc21`, the inhibition (in general, the change of the read-out against control, counted positive when it falls) at 5 µM in test [1] came out at 61.3%; in test [2], 83.5%.

On to `Cc1ccccc1Cn1c(C2CC2)nc2ccccc21`, for which the inhibition at 5 µM in test [1] turned out to be 35.5%; in test [2], 45.3%.

As for `CC(C)n1c(NCc2ccccc2)nc2ccccc21`, the inhibition at 5 µM in test [1] was 48.4%; in test [2], 22.4%.

On to `Clc1ccc(Cn2c(NCc3cccs3)nc3ccccc32)cc1`, for which the inhibition at 5 µM was 72% in test [1] and 37.5% in test [2].

For `CC(C)(C)NC(=O)Cn1c(NCc2ccccc2)nc2ccccc21`, the figures for the inhibition at 5 µM in test [1] and in test [2] were 51% and 3.97%, respectively.

For the molecule `COc1ccc(CNc2nc3ccccc3n2C)c(OC)c1`, the inhibition at 5 µM in test [1] was determined as 41.3%; in test [2] it was 19.4%.

Regarding `CCCCn1c(NCc2cccs2)nc2ccccc21` [drawing 80], the inhibition at 5 µM in test [1] is 66.1%; in test [2], 81.3%.

As to `CCCn1c(NCc2ccccc2Cl)nc2ccccc21`, the inhibition at 5 µM amounted to 46% in test [1] and 29.8% in test [2].

For `COc1ccc(NCc2nc3ccccc3n2CCOc2ccccc2C)cc1`, the inhibition at 5 µM in test [1] is 44.9%; in test [2] it was 58.5%.

Take `Cn1c(=O)c2c(ncn2CC(=O)OCCCC(c2ccc(F)cc2)c2ccc(F)cc2)n(C)c1=O`: the inhibition at 5 µM came out at 60% in test [1] and 60.7% in test [2].

For the molecule `Cc1nc2ccccc2n1CCNC(=O)c1ccccc1SCc1ccsc1`, the inhibition at 5 µM in test [1] is 77.7%; in test [2], 80.8%.

On to `COc1ccc(/C=N/c2nc3ccccc3n2Cc2ccccc2)cc1OC`, for which the results for the inhibition at 5 µM in test [1] and in test [2] were 74.3% and 90.5%, respectively.

As for `C=CCn1c(NCc2cccs2)nc2ccccc21`, the results for the inhibition at 5 µM in test [1] and in test [2] were 50.7% and 14.6%, respectively.

Regarding `Cc1ccccc1OCCn1c(C)nc2ccccc21`, the inhibition at 5 µM came to 70% in test [1] and 76.2% in test [2].

`COCCn1c(SCC(=O)Nc2cccc3ncccc23)nc2ccccc21`: the inhibition at 5 µM in test [1] turned out to be 59.1%; in test [2], 83.6%.

Regarding `CC(C)(C)C(=O)NCCc1nc2ccccc2n1Cc1ccc(Cl)cc1`, the inhibition at 5 µM is 38.9% in test [1] and -7.07% in test [2].

For `CCCn1c(NCc2ccco2)nc2ccccc21`, the figures for the inhibition at 5 µM in test [1] and in test [2] were 40.7% and 14.9%, respectively.

On to `CCCn1c(NCc2c[nH]c3ccccc23)nc2ccccc21`, for which the inhibition at 5 µM stood at 70.6% in test [1] and 54.7% in test [2].

As for `COc1ccc(CNc2nc3ccccc3n2Cc2ccc(Cl)cc2)cc1OC`, the inhibition at 5 µM in test [1] stood at 53.4%; in test [2], 31.3%.

For `CCCCn1c(NCc2cccs2)nc2ccccc21` [drawing 82], the “Inhibition of TRPC5 (A)” value in test [1] (5 µM) was 65.84%. Besides, the “Inhibition of TRPC6 (A)” value in test [2] (5 µM) was determined as 72.31%.

In the case of `Brc1cccc(CNc2nc3ccccc3n2CCN2CCCCC2)c1`, the figures for the inhibition at 5 µM in test [1] and in test [2] were 55% and 51%, respectively.

As to `COc1ccccc1CNc1nc2ccccc2n1C(C)C`, the results for the inhibition at 5 µM in test [1] and in test [2] were 57.9% and 53.9%, respectively.

Regarding `CCSc1nc2ccccc2n1Cc1cccc([N+](=O)[O-])c1`, the figures for the inhibition at 5 µM in test [1] and in test [2] were 32.2% and 50%, respectively.

On to `CCC(=O)NCCc1nc2ccccc2n1Cc1ccc(F)cc1`, for which the inhibition at 5 µM in test [1] came out at 27%; in test [2] it was 2.78%.

Consider `CCn1c(NCc2ccc(Br)cc2)nc2ccccc21`, for which the inhibition at 5 µM in test [1] turned out to be 71.6%; in test [2], 77.3%.

`Cc1nc2ccccc2n1CC(=O)Nc1ccc(Cl)cc1`: the inhibition at 5 µM in test [1] came out at 39.7%; in test [2], 70%.

Turning to `Cc1ccc(NC(=O)Cn2c(C)nc3ccccc32)cc1`, the values for the inhibition at 5 µM in test [1] and in test [2] were 32.1% and 81.8%, respectively.

`Cc1cccc(OCCn2c(Cc3ccccc3)nc3ccccc32)c1`: the inhibition at 5 µM came to 56.4% in test [1] and 52.9% in test [2].

`COc1ccc(-n2c(SCC(=O)Nc3cccc(S(=O)(=O)N4CCOCC4)c3)nc3ccccc32)cc1`: the figures for the inhibition at 5 µM in test [1] and in test [2] were 69.6% and 6.92%, respectively.

`CC(C)n1c(Nc2ccccc2)nc2ccccc21`: the inhibition at 5 µM in test [1] is 35.7%; in test [2], 14.5%.

As to `CC(NCc1nc2ccccc2n1C)C12CC3CC(CC(C3)C1)C2` (stereo not shown), the inhibition at 5 µM was 55.2% in test [1] and 69.7% in test [2].

On to `C=C(C)Cn1c(-c2ccc(N(C)C)cc2)nc2ccccc21`, for which the inhibition at 5 µM in test [1] and in test [2] was 45% throughout.

In the case of `CCCCc1nc2ccccc2n1CC(=O)N1CCCC1c1nc2ccccc2s1` (stereo not shown), the inhibition at 5 µM was 46.3% in test [1] and -0.71% in test [2].

Regarding `CC(C)CCn1c(-c2ccc(N)cc2)nc2ccccc21`, the inhibition at 5 µM in test [1] stood at 61.1%; in test [2] it was 27.2%.

For `CCN(CC)CCn1c(NCc2cccc(Br)c2)nc2ccccc21`, the inhibition at 5 µM in test [1] came out at 62.9%; in test [2], 69.8%.

As to `Nc1nc2ccccc2n1CCOc1ccccc1Cl`, the inhibition at 5 µM in test [1] was 49.9%; in test [2], 53.7%.

`COc1ccc(OCc2nc3ccccc3n2CCc2ccccc2)cc1`: the figures for the inhibition at 5 µM in test [1] and in test [2] were 38.3% and 52%, respectively.

With `CCCCn1c(NCc2ccc(N(CC)CC)cc2)nc2ccccc21`, the inhibition at 5 µM in test [1] was determined as 28.7%; in test [2], 30.3%.

As for `CCOc1ccc(NCc2nc3ccccc3n2CCOc2ccccc2C)cc1`, the figures for the inhibition at 5 µM in test [1] and in test [2] were 37.5% and 66.1%, respectively.

For the molecule `CCCn1c(-c2ccc(Br)cc2)nc2ccccc21`, the inhibition at 5 µM in test [1] worked out at 61.4%; in test [2], 82.8%.

As to `CCCCCn1c(NCc2ccc(N(C)C)cc2)nc2ccccc21`, the inhibition at 5 µM worked out at 62.7% in test [1] and 81.9% in test [2].

Consider `CCCCn1c(NCc2nc3ccccc3n2C)nc2ccccc21`, for which the inhibition at 5 µM in test [1] came out at 59.5%; in test [2], 30.4%.

On to `CCC(CC)c1nc2ccccc2n1Cc1ccccc1`, for which the inhibition at 5 µM turned out to be 34.9% in test [1] and 35.3% in test [2].

With `C#CCn1c(Cc2ccc(OC)c(OC)c2)nc2ccccc21`, the inhibition at 5 µM in test [1] came out at 66%; in test [2], 91.5%.

As for `Cn1c(NCc2c[nH]c3ccccc23)nc2ccccc21`, the values for the inhibition at 5 µM in test [1] and in test [2] were 66.8% and 27.7%, respectively.

In the case of `Cn1c(NCc2cccc3ccccc23)nc2ccccc21`, the inhibition at 5 µM in test [1] stood at 45.5%; in test [2], 27.5%.

On to `Cc1cc(NC(=O)Cn2c(NCc3ccccc3)nc3ccccc32)no1`, for which the inhibition at 5 µM is 48% in test [1] and 22.8% in test [2].

Consider `CCn1c(NC2CCCCC2)nc2ccccc21`, for which the inhibition at 5 µM in test [1] was determined as 55.5%; in test [2], 9.58%.

For `Nc1ccc(-c2nc3ccccc3n2CCCOc2ccccc2)cc1`, the inhibition at 5 µM in test [1] was found to be 38.6%; in test [2], 27.3%.
